ChEMBL document CHEMBL1125753, “Absolute structure-cytotoxic activity relationships of steganacin congeners and analogues” (1991)
Values after ≈ are worked out from the molar mass of the structure shown.

What was measured:
KB = assay: In vitro effective dose to inhibit KB cell growth from a human epidermoid carcinoma.; type: functional; details: for EC50: Homo sapiens, KB, read-out: ED50 (the source's name)
Tetrahymena pyriformis = assay: In vitro minimum inhibition concentration to inhibit the regeneration of cilia in Tetrahymena pyriformis W.; type: functional
[1] = Tetrahymena pyriformis, read-out: MIC

Structure (SMILES) | EC50 (KB) [µg/mL] | MIC (Tetrahymena pyriformis; [1]) [µg/mL] | ED50 (KB) [µg/mL] | also measured
COc1cc2c(c(OC)c1OC)-c1cc3c(cc1[C@H](O)[C@H]1COC(=O)[C@H]1C2)OCO3 | 16 (≈ 38.6 µM) | – | – | –
COc1cc2c(c(OC)c1OC)-c1cc3c(cc1[C@@H](O)[C@H]1COC(=O)[C@@H]1C2)OCO3 | 5 (≈ 12.1 µM) | – | – | –
COc1cc2c(c(OC)c1OC)-c1cc3c(cc1[C@H](C#N)[C@H]1COC(=O)[C@@H]1C2)OCO3 | 1.52 (≈ 3.59 µM) | – | – | –
COc1cc2c(c(OC)c1OC)-c1cc3c(cc1[C@H](O[C@@H]1O[C@@H](CO)[C@@H](O)[C@H](O)[C@@H]1O)[C@H]1COC(=O)[C@@H]1C2)OCO3 | > 100 | – | – | –
COc1cc2c(c(OC)c1OC)-c1cc3c(cc1[C@H](O[C@@H]1O[C@@H](COC(C)=O)[C@@H](OC(C)=O)[C@H](OC(C)=O)[C@@H]1OC(C)=O)[C@H]1COC(=O)[C@@H]1C2)OCO3 | 56 (≈ 75.2 µM) | – | – | –
COc1cc2c(c(OC)c1OC)-c1cc3c(cc1[C@H](O[C@@H]1O[C@H]4CO[C@@H](c5cccs5)O[C@H]4[C@H](O)[C@@H]1O)[C@H]1COC(=O)[C@@H]1C2)OCO3 | > 100 | – | – | –
COc1cc2c(c(OC)c1OC)-c1cc3c(cc1[C@H](OC(=O)c1ccc(Br)cc1)[C@H]1COC(=O)[C@@H]1C2)OCO3 | 3.9 (≈ 6.53 µM) | – | – | –
COc1cc2c(c(OC)c1OC)-c1cc3c(cc1[C@H](O)[C@H]1COC(=O)[C@@H]1C2)OCO3 | 0.53 (≈ 1.28 µM) | – | – | –
COc1cc2c(c(OC)c1OC)-c1cc3c(cc1[C@H](OCCN(C)C)[C@H]1COC(=O)[C@@H]1C2)OCO3 | 1.5 (≈ 3.09 µM) | – | – | –
COc1cc2c(c(OC)c1OC)-c1cc3c(cc1C(=O)[C@H]1COC(=O)[C@@H]1C2)OCO3 | 6.2 (≈ 15 µM) | – | – | –
COc1cc2cc(c1Cl)N(C)C(=O)C[C@H](OC(=O)C(C)C)[C@]1(C)O[C@H]1[C@H](C)[C@@H]1C[C@@](O)(NC(=O)O1)[C@H](OC)/C=C/C=C(\C)C2 | – | < 0.5 | – | –
COc1cc(C2c3cc4c(cc3CC3COC(=O)[C@@H]32)OCO4)cc(OC)c1OC (mixture of isomers) | – | – | <0.3 | –
COc1cc2c(c(OC)c1OC)-c1cc3c(cc1C(OC(C)=O)[C@H]1COC(=O)[C@@H]1C2)OCO3 (mixture of isomers) | 15.7 | > 20 | – | –
COc1cc(C[C@H]2C(=O)OCC2Cc2ccc3c(c2)OCO3)cc(OC)c1OC (mixture of isomers) | 16.8 | > 20 | – | –
COc1cc2c(c(OC)c1OC)-c1cc3c(cc1[C@@H](OC(C)=O)C1COC(=O)[C@H]1C2)OCO3 (mixture of isomers) [STEGANACIN] | < 0.3 | > 20 | – | –
COc1cc2c(c(OC)c1OC)-c1cc3c(cc1C[C@H](CO)[C@@H](CO)C2)OCO3 (racemic) | 75 (≈ 186 µM) | – | – | –
COc1cc2c(c(OC)c1OC)-c1cc3c(cc1C[C@H](COC(C)=O)[C@@H](COC(C)=O)C2)OCO3 (racemic) | 15 (≈ 30.8 µM) | – | – | –
COc1cc2c(c(OC)c1OC)-c1cc3c(cc1C[C@H]1COC(=O)[C@H]1C2)OCO3 (racemic) [PICROSTEGANE] | – | – | 28 (≈ 70.3 µM) | –
COc1cc2c(c(OC)c1OC)-c1cc3c(cc1C[C@H]1COC(=O)[C@@H]1C2)OCO3 (racemic) [STEGANE] | – | – | 0.94 (≈ 2.36 µM) | –
COc1cc2c(c(OC)c1OC)-c1cc3c(cc1CC1COC(=O)C1C2)OCO3 (racemic; form 1) | – | – | 1.13 (≈ 2.84 µM) | –
COc1cc2c(c(OC)c1OC)-c1cc3c(cc1CC1COC(=O)C1C2)OCO3 (racemic; form 2) | – | > 20 | <0.3 | –

Structure (SMILES) | EC50 (KB) [µg/mL] | MIC (Tetrahymena pyriformis; [1]) [µg/mL] | ED50 (KB) [µg/mL] | also measured
COc1cc2c(c(OC)c1OC)-c1cc3c(cc1CC1COC(=O)C1C2)OCO3 (racemic; form 3) | – | – | 1.33 (≈ 3.34 µM) | –
COc1cc(C2c3cc4c(cc3CC3COC(=O)[C@@H]32)OCO4)cc(OC)c1OC (stereo in doubt) | – | > 20 | 1.75 (≈ 4.39 µM) | –
COc1cc2c(c(OC)c1OC)-c1cc3c(cc1C[C@@H]1COC(=O)[C@@H]1C2)OCO3 (stereo in doubt; (+)) | – | – | 4.1 (≈ 10.3 µM) | MIC (Tetrahymena pyriformis): >20 µg/mL
COc1cc(C[C@@H]2C(=O)OC[C@H]2Cc2ccc3c(c2)OCO3)cc(OC)c1OC (stereo in doubt; (+)) | 5.2 (≈ 13 µM) | – | – | MIC (Tetrahymena pyriformis): <20 µg/mL
COc1cc(CC2COCC2Cc2ccc3c(c2)OCO3)cc(OC)c1OC (stereo in doubt; (+)) [CISBURSERAN] | – | – | – | MIC (Tetrahymena pyriformis): 20 µg/mL (≈ 51.8 µM)
COc1cc2c(c(OC)c1OC)-c1cc3c(cc1C[C@H]1COC(=O)[C@H]1C2)OCO3 (stereo in doubt; (+)) [PICROSTEGANE] | – | > 20 | 32 (≈ 80.3 µM) | –
COc1cc2c(c(OC)c1OC)-c1cc3c(cc1C[C@@H]1COC(=O)[C@@H]1C2)OCO3 (stereo in doubt; (-)) | – | 20 (≈ 50.2 µM) | <0.3 | –
COc1cc(C[C@@H]2C(=O)OC[C@H]2Cc2ccc3c(c2)OCO3)cc(OC)c1OC (stereo in doubt; (-)) | – | > 20 | – | –
COc1cc(CC2COCC2Cc2ccc3c(c2)OCO3)cc(OC)c1OC (stereo in doubt; (-)) [CISBURSERAN] | – | > 20 | – | –
COc1cc2c(c(OC)c1OC)-c1cc3c(cc1C[C@H]1COC(=O)[C@H]1C2)OCO3 (stereo in doubt; (-)) [PICROSTEGANE] | – | – | 8.8 (≈ 22.1 µM) | –
COc1cc2c(c(OC)c1OC)-c1cc3c(cc1[C@@H](OC(C)=O)[C@H]1COC(=O)[C@@H]1C2)OCO3 (stereo in doubt; form 1) | – | – | 1.75 (≈ 3.83 µM) | –
COc1cc2c(c(OC)c1OC)-c1cc3c(cc1C[C@H]1COC(=O)[C@@H]1C2)OCO3 (stereo in doubt; form 1) [STEGANE] | – | – | 86 (≈ 216 µM) | –
COc1cc2c(c(OC)c1OC)-c1cc3c(cc1[C@@H](OC(C)=O)[C@H]1COC(=O)[C@@H]1C2)OCO3 (stereo in doubt; form 2) | – | > 20 | 61 (≈ 134 µM) | –
COc1cc2c(c(OC)c1OC)-c1cc3c(cc1C[C@H]1COC(=O)[C@@H]1C2)OCO3 (stereo in doubt; form 2) [STEGANE] | – | > 20 | 0.49 (≈ 1.23 µM) | –
COc1cc2c(c(OC)c1OC)-c1cc3c(cc1[C@@H](OC(C)=O)[C@H]1COC(=O)[C@@H]1C2)OCO3 (stereo in doubt; form 3) | – | – | 16.6 (≈ 36.4 µM) | –
COc1cc2c(c(OC)c1OC)-c1cc3c(cc1C[C@H]1COC(=O)[C@@H]1C2)OCO3 (stereo in doubt; form 3) [STEGANE] | – | – | 94 (≈ 236 µM) | –
COc1cc2c(c(OC)c1OC)-c1cc3c(cc1C[C@H]1COC(=O)[C@@H]1C2)OCO3 (stereo in doubt; form 4) [STEGANE] | – | – | 0.47 (≈ 1.18 µM) | –
COc1cc2c(c(OC)c1OC)-c1cc3c(cc1[C@H](OC(C)=O)[C@H]1COC(=O)[C@@H]1C2)OCO3 [(-)-STEGANACIN] | < 0.3 | > 20 | – | –
COc1cc2c(c(OC)c1OC)-c1ccc(OC)c(=O)cc1[C@@H](NC(C)=O)CC2 [COLCHICINE] | < 0.3 | > 20 | – | –
COc1cc([C@@H]2c3cc4c(cc3[C@H](O)[C@H]3COC(=O)[C@H]23)OCO4)cc(OC)c1OC [PODOFILOX] | < 0.3 | > 20 | – | –
